Measurements published in US20090031435A1, “SMA Therapy and Cell Based Assay” (priority 2002, published 2009).

Tests used:
SMN1-luciferase control = SMN1-luciferase control splicing reporter luminescence assay in C33A cells; type: cell-based, human
Method: (§1) In a screen to identify compounds capable of enhancing the inclusion of exon 7 in SMN2 mRNA, cells of the human cervical carcinoma cell line C33A (ATCC#HTB-31) were stably transformed with an SMN fragment/luciferase reporter gene construct that incorporated exons 6-8 of SMN1 or SMN2 for use in a high-throughput screening assay. These cells were cultured in Dulbecco's Modified Eagle's Medium (DMEM) with 10% Fetal Bovine Serum (Sigma F 2442), 50 units/mL penicillin 50 μg/mL streptomycin sulfate and 400 mg/L G418 (i.e. Geneticin, Gibco, cat. No. 11811-031). The assay medium used to perform the luciferase assay was identical to the growth medium except the G418 selection agent was omitted. To perform the luciferase assay, a single reagent (25 mM glycylglycine, 15 mM magnesium sulfate, 4 mM EGTA, adjusted to pH 7.85, to which is added 10 μM D-luciferin (Sigma L9504), 10 mM dithiothreitol (DTT, Roche Molecular Biochemicals 100034), 2 mM adenosine 5′-triphosphate (ATP, Sigma A7699), 50 μM CoenzymeA, sodium salt (Sigma C 3144) and 1.5% Triton X-100) was used to lyse the cells and to initiate the luciferase reaction.
(§2) Using this cell-based luminescence assay, a screen was performed to identify compounds that modulate SMN splicing. Stably transfected C33A cells (˜35-40 M cells/flask) were cultured, then removed from T-175 culture flasks with 3 mL trypsin, and quenched with 7 mL assay medium. The cells were spun down and re-suspended in assay medium to a concentration of ˜200,000 cells/mL. Cells were immediately seeded in 384-well assay plates (Nalge Nunc white plates, #164610) 57 μL/well for a cell density of 11,000 cells/well. Compounds from a library obtained from the National Institute of Neurological Disorders and Stroke (NINDS) were added to the cells to a final concentration of 10 μM (diluted with assay medium by 1000× from the 10 mM stock solution in DMSO). The cells were incubated with the test compounds at 37° C. for ˜48 hr. A Zymark Sciclone ALH was used for cell seeding and compound addition. After incubation, the assay plates were cooled to room temperature for ˜10-60 minutes. The medium and compounds were aspirated from the wells, followed by 6 rinse/aspirate cycles with a PBS solution. 53 μL of the luciferase assay reagent was added and the plate was immediately transferred to a luminescence plate reader. The plate was shaken for 30 minutes prior to reading. The plate processing steps were performed on an integrated Packard Minitrak/Sidetrak platereader.
(§3) To analyze the data, the dark count background was first subtracted from all luminescence readings. The signal from each compound treated well was divided by the average of 48 control wells on the same 384-well plate. Each compound library plate was tested in triplicate with each of the two cell lines, and the entire assay was repeated on two separate occasions, yielding six readings for each compound for each cell line. The highest and lowest of the six normalized readings were dropped and the remaining four readings averaged. These average values of compound-treated luminescence versus control luminescence are denoted “Xnorm(y)”, where X indicates the cell line, SMN1-luciferase or SMN2-luciferase, and y represents the compound. The difference of [SMN2norm(y)−SMN1norm(y)] measures the selective change in SMN2-luciferase expression versus change in SMN1 luciferase production upon treatment with compound y. This is the final score that is output.
(§4) These dilutions were created with a Zymark Sciclone ALH Z-8. Once created, the assay was performed as described for the screening process. Concentrations required to achieve 50% of the maximally achievable effect for each compound (“EC50”) were calculated using Xlfit (IDBS).

[1] = test system: SMN2-luciferase reporter construct; test: SMN2-luciferase splicing reporter luminescence assay in C33A cells; type: cell-based, human; conditions: for SMN2 luminescence/SMN1 luminescence: highest point of the curve of increase in SMN2-luciferase luminescence minus increase in SMN1-luciferase luminescence (treated/control), dilution series max 10 uM; for luminescence from the SMN2-luciferase reporter construct: screen at 10 μM, ~48 hr
Method: as §1, §2, §3, §4

Compound | Effect on splicing of SMN1-luciferase control in C33A cells (SMN1-luciferase control) | Effect on splicing of SMN2-luciferase in C33A cells [1] | SMN2 luminescence/SMN1 luminescence [1] | luminescence from the SMN2-luciferase reporter construct [1]
COc1ccc2c(c1)c(CC(=O)O)c(C)n2C(=O)c1ccc(Cl)cc1 [1-(4-Chlorobenzoyl)-5-methoxy-2-methyl-3-indoleacetic acid] | None | None | – | –
CN1C(=O)c2ccc(-c3ccccc3)cc2C1(O)C(C)(C)C (stereo not drawn) [1-tert-butyl-1-hydroxy-2-methyl-6-phenyl-3-isoindolinone] | – | None | – | –
CC(O)c1ccc(N2Cc3ccccc3C2=O)cc1 (stereo not drawn) [1H-isoindol-1-one, 2,3-dihydro-2-[4-91-hydroxyethyl)phenyl]] | Increased | Increased | – | –
O=C1c2ccccc2CN1c1ccccc1 [1H-isoindol-1-one, 2,3-dihydro-2-phenyl] | None | None | – | –
O=C1NCc2ccccc21 [1H-isoindol-1-one, 2,3-dihydro-] | None | None | – | –
O=C(O)CCC(C(=O)O)N1Cc2ccccc2C1=O (stereo not drawn) [2-Phthalimidino-glutaric acid] | None | None | – | –
O=C(O)C(Cc1ccccc1)N1Cc2ccccc2C1=O (stereo not drawn) [2H-isoindol-2-acetic acid, 1,3-dihydro-1-oxo-alpha-(phenylmethyl)- . . .] | None | None | – | –
O=C(O)CCCN1C(=O)c2ccccc2C1=O [2H-isoindol-2-butanoic, 1,3-dihydro-1,3-dioxo] | None | None | – | –
Cc1ccc(C(CC(=O)O)N2Cc3ccccc3C2=O)cc1 (stereo not drawn) [2H-isoindol-2-propanoic acid, 1,3-dihydro-beta-(4-methylphenyl)-1-oxo] | None | None | – | –
CCC(CC)(CC)C1(O)c2ccccc2C(=O)N1C (stereo not drawn) [3-(1,1-diethylpropyl)-3-hydroxy-2-methyl-1-isoindolinone] | – | None | – | –
CN1C(=O)c2ccccc2C1(O)C(C)(c1ccccc1)c1ccccc1 (stereo not drawn) [3-(1,1-diphenylethyl)-3-hydroxy-2-methyl-1-isoindolinone] | – | None | – | –
Cc1ccc(N2C(=O)c3ccccc3C2C(=O)c2ccc(O)cc2O)cc1 (stereo not drawn) [3-(2,4-hydroxybenzoyl)-2-(4-methylphenyl)-1-isoindolinone] | – | None | – | –
Cc1ccc(N2C(=O)c3ccccc3C2C(=O)c2cc(O)ccc2O)cc1 (stereo not drawn) [3-(2,5-hydroxybenzoyl)-2-(4-methylphenyl)-1-isoindolinone] | – | None | – | –
Cc1ccc(N2C(=O)c3ccccc3C2C(=O)c2cc(C)ccc2O)cc1 (stereo not drawn) [3-(2-hydroxy-5-methylbenzoyl)-2-(4-methylphenyl)-1-isoindolinone] | – | None | – | –
O=C1c2ccccc2C(O)(c2ccc(Cl)cc2)N1OC1CCCCO1 (stereo not drawn) [3-(4-chlorophenyl)-3-hydroxy-2-(tetrahydropyran-2-yloxy)-1-isoindolinone] | – | None | – | –
CC[C@@]1(O)C(=O)OCc2c1cc1n(c2=O)Cc2cc3ccccc3nc2-1 [Camptothecin, camptothecin] | – | – | 0.4 | increased luminescence
CO[C@@]1(NC(=O)Cc2cccs2)C(=O)N2C(C(=O)O)=C(COC(N)=O)CS[C@@H]21 [Cefoxitin sodium, cefoxitin sodium] | – | – | 0.3 | increased luminescence
O=C1C=C2C(=CCOC2O)O1 (stereo not drawn) [Patulin, patulin] | – | – | 0.7 | increased luminescence
[O-][n+]1ccccc1[S-].[O-][n+]1ccccc1[S-].[Zn+2] [Pyrithione zinc, pyrithione zinc] | – | – | 1.0 | increased luminescence
CC(=O)Nc1ccc(O)cc1 [acetominophen] | – | – | – | None of these compounds resulted in increased luminescence
NC12CC3CC(CC(C3)C1)C2 [amantadine] | – | – | 0.3 | increased luminescence
CC(=O)Oc1ccccc1C(=O)O [aspirin] | – | – | – | None of these compounds resulted in increased luminescence
CC(C(=O)O)c1cccc(Oc2ccccc2)c1 (stereo not drawn) [fenoprofen] | – | – | – | None of these compounds resulted in increased luminescence
CC(C(=O)O)c1ccc(-c2ccccc2)c(F)c1 (stereo not drawn) [flurbiprofen] | – | – | – | None of these compounds resulted in increased luminescence
CC(C)Cc1ccc(C(C)C(=O)O)cc1 (stereo not drawn) [ibuprofen] | – | – | – | None of these compounds resulted in increased luminescence
CC(C(=O)O)c1cccc(C(=O)c2ccccc2)c1 (stereo not drawn) [ketoprofen] | – | – | – | None of these compounds resulted in increased luminescence
CC(C(=O)O)c1ccc(C(=O)c2cccs2)cc1 (stereo not drawn) [suprofen] | – | – | – | None of these compounds resulted in increased luminescence
Methyl 2-[4-(1,3-dioxo-2,3-dihydro-1H-isoindol-2-yl)-3-me . . . | – | None | – | –
Methyl 2-[4-(1,3-dioxo-2,3-dihydro-1H-isoindol-2-yl)phenyl . . . | – | None | – | –
